One may read the Km as the concentration of substrate that gives half-maximal velocity. By IC50 is commonly meant the concentration that gives 50% inhibition. A high value points to a need for much substance.

Where two headings read alike, the source gives them in different places. A value given as a limit tells only on which side of the number the result lay.

The target in data set [1] is T1, S. glaucescens His6-KASIII (Streptomyces glaucescens, UniProt Q54206).
T1 construct: His6 (N); made in house; host or cells: Escherichia coli BL21 (DE3 pLysE)/pLH14
T1 sequence (Q54206 1-333): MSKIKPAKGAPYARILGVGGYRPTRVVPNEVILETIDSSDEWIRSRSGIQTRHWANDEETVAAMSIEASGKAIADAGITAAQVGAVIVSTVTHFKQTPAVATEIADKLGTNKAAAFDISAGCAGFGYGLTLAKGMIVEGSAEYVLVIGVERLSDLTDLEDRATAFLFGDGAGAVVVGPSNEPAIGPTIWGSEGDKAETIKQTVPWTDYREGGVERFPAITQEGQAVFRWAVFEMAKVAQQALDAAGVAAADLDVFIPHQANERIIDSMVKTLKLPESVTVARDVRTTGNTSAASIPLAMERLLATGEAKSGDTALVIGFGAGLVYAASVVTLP
Put plainly: KASIII scintillation proximity assay (SPA). It is filed as biochemical. Here is the method: (§1) The standard reaction mixture contained the following components in a final volume of […]: S. glaucescens His6-KASIII […], 100 mM imidazole, pH 7.0, 2.6 μM BMACP (MACP), [^3H] acetyl-CoA 0.6 μM (0.24 μCi, specific activity 20 Ci/mmol). The reaction was initiated by adding [^3H] acetyl-CoA and incubated at 30 ° C. for 10 minutes.
(§2) For the KASIII SPA, the reaction was terminated by the sequential addition of 100 μl of 100% ethanol (which denatures the KASIII) and 50 μl of the SPA bead solution (10 mg/ml). The mixture was then incubated for 2 hr at 23° C. with gentle shaking. After allowing the beads to settle the sealed OptiPlate (Packard, Meriden, Conn.) was counted using a TopCount (Packard) set up in SPA mode. A background signal was obtained by carrying out the assay in absence of KASIII. This background signal was subtracted from KASIII SPA signals.
(§3) In all inhibitor studies, the inhibitor was first dissolved in DMSO and preincubated with enzyme for 15 minutes at 23° C., prior to addition of substrate. The final DMSO concentration in each of these assays remained below 1%.
The apparent Km for MACP with the S. glaucescens KASIII was determined using the standard TCA precipitation assay with the following modifications: tritiated acetyl-CoA at a final concentration of 13.3 μM (0.4 μCi, specific activity 1 Ci/mmol ) was incubated at 30° C. for 5 min with various concentrations of MACP (0.39-18.7 μM) in a volume of 30 μl. The apparent Km for BMACP with the S. glaucescens KASIII was determined in SPA format. Tritiated acetyl-CoA at a final concentration of 7.5 μM (0.6 μCi, specific activity 4 Ci/mmol) was incubated at 30° C. for 9 min with various BMACP concentrations (0.28 to 9 μM).
On the technique in general: In a scintillation proximity assay essentially only radioactivity close to the scintillant gives light.

The target in data set [2] is T1, S. glaucescens His6-KASIII. The following applies: cited from earlier work.
For data set [3], the target named is T1, S. glaucescens His6-KASIII. Put plainly: KASIII TCA precipitation assay. In kind it is biochemical. Here is the method:
as §1
(§4) In the KASIII TCA precipitation assay, the reaction was quenched by the addition of 200 μl ice cold 10% TCA, incubated on ice for 10 min and centrifuged at 13,000 g for 10 min. The supernatant was discarded and the pellet was resuspended with another 200 μl of cold TCA and centrifuged. The pellet bound ^3H labeled product was dissolved in 2% SDS, 20 mM NaOH and quantitated by liquid scintillation counting. The Escherichia coli KASIII assay was performed in the same manner except that the incubation time was reduced to 2 minutes, and 0.13 μg of protein and 0.4 μM MACP (BMACP) were used in the assay.
In all inhibitor studies, the inhibitor was first dissolved in DMSO and preincubated with enzyme for 15 minutes at 23° C., prior to addition of substrate. The final DMSO concentration in each of these assays remained below 1%. […]

For data set [4], the target named is T2, E. coli KASIII (Escherichia coli, UniProt P0A6R0). Put plainly: KASIII scintillation proximity assay (SPA). It is filed as biochemical. Here is the method: as §1, §2
T2 sequence (P0A6R0 whole entry): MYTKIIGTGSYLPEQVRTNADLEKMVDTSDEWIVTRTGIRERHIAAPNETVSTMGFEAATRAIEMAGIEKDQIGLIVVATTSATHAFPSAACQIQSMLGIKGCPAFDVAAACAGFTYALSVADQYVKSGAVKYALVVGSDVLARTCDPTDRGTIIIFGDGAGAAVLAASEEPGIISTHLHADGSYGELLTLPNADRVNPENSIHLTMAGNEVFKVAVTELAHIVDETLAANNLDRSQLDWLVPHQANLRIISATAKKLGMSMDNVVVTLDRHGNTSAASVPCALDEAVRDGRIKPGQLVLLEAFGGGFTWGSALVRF
In the KASIII TCA precipitation assay, the reaction was quenched by the addition of 200 μl ice cold 10% TCA, incubated on ice for 10 min and centrifuged at 13,000 g for 10 min. The supernatant was discarded and the pellet was resuspended with another 200 μl of cold TCA and centrifuged. The pellet bound ^3H labeled product was dissolved in 2% SDS, 20 mM NaOH and quantitated by liquid scintillation counting. […]

The target of data set [5] is T2, E. coli KASIII. As to the kind of experiment: KASIII TCA precipitation assay. In kind it is biochemical. Here is the method:
as §1, §4, §3

Take `C[S+](C)[O-]` [DMSO, Dimethyl Sulfoxide]: in data set [1] (DMSO concentration of 10% v/v), the “reduction in the SPA signal” value is approximately 50%. For the same molecule, the “decrease in the SPA signal” value in data set [1] (DMSO concentrations below 1.5% v/v) is “no significant decrease”. For `CC(=O)SCCNC(=O)CCNC(=O)[C@H](O)C(C)(C)COP(=O)(O)OP(=O)(O)OC[C@H]1O[C@@H](n2cnc3c(N)ncnc32)[C@H](O)[C@@H]1OP(=O)(O)O` [acetyl-CoA], the Km was more than 1.6 µM in data set [1] (SPA, suggested by linear relationship over 0-1.6 μM substrate, read-out: Km for acetyl-CoA) and 3 µM in data set [2] (previous analyses using a TCA-precipitation assay, read-out: Km for acetyl-CoA). Consider `NC(=O)CI` [iodoacetamide, Iodoacetamide, reference compound], for which the IC50 in data set [1] amounted to 15 ± 1 µM; in data set [3] (TCA precipitation assay, inhibitor preincubated with enzyme 15 minutes at 23° C.), 25 ± 3 µM. For `C=C/C(C)=C/[C@@]1(C)SC(=O)C(C)=C1O` [thiolactomycin], the IC50 against E. coli KASIII [4] is 124 ± 14 µM; at E. coli KASIII [5], 160 ± 14 µM. Take “BMACP: Biotinylated Malonyl-Acyl Carrier Protein, prepared by biotinylation of MACP using NHS-biotin; KASIII substrate”: the Km is 7.2 ± 2.6 µM in data set [1] (SPA format, 7.5 μM tritiated acetyl-CoA, 30° C., 9 min, read-out: Km (apparent) for substrate) and 3.7 µM in data set [2] (previously determined using a TCA precipitation assay, read-out: Km previously determined). Consider “MACP: Malonyl-Acyl Carrier Protein generated from Escherichia coli ACP and malonyl-CoA; KASIII substrate”, for which the Km in data set [3] (TCA-based assay, 13.3 μM tritiated acetyl-CoA, 30° C., 5 min, read-out: Km (apparent) for substrate) turned out to be 6.1 ± 0.4 µM.
